Literature values, collected in patent US20090252711A1, “Stem Cells And Methods Of Making And Using Stem Cells” (priority 2006, published 2009).

Key:
neural stem cells = conditions: Marin-Husstege et al. 2002
cultured ASCs = conditions: Cho et al. 2005
hTERT = conditions: normal human cells; Hou et al.
lung fibroblast cells = conditions: Mukhopadhyay et al. 2005

Row | Compound | differentiation of neural stem cells towards the astrocyte cell type (neural stem cells) | differentiation of neural stem cells towards the oligodendrocyte cell type (neural stem cells) | differentiation towards the osteogenic (bone) lineage (cultured ASCs) | expression of the gene hTERT (hTERT) | telomerase activity (lung fibroblast cells)
1 | CC(/C=C/C(=O)NO)=C\[C@@H](C)C(=O)c1ccc(N(C)C)cc1 [trichostatin A] | not towards the astrocyte cell type | blocked | enhanced differentiation | upregulation | induced
2 | CCCC(CCC)C(=O)O [Valproic acid] |  |  | enhanced differentiation |  | 
